Results from ChEMBL document CHEMBL1914350, “Convolutamines I and J, antitrypanosomal alkaloids from the bryozoan Amathia tortusa” (Bioorg Med Chem, 2011).
≈ marks a conversion by molar mass, not a printed value.

Columns and labels:
[1] = tested on: P388; assay: Cytotoxicity against mouse P388 cells; format: functional, cell-based
[2] = Antimitotic activity in sea urchins assessed as inhibition of fertilized egg cell division; format: functional, Echinoidea
[3] = tested on: Haemonchus contortus; assay: Antiparasitic activity against Haemonchus contortus assessed as inhibition of free-living larval stage; format: functional
[4] = Selectivity index, ratio of IC50 for human HEK293 cells to IC50 for Trypanosoma brucei brucei; format: toxicity, cell-based; settings: HEK293 cells versus Trypanosoma brucei brucei, read-out: Ratio IC50
[5] = Lipophilicity, log P of the compound; format: physicochemical; settings: octanol/water
[6] = tested on: HEK293; assay: Cytotoxicity against human HEK293 cells after 48 hrs by alamar blue assay; format: cell-based; settings: HEK293, 48 h
[7] = tested on: Trypanosoma brucei brucei; assay: Antitrypanosomal activity against Trypanosoma brucei brucei after 48 hrs by alamar blue assay; format: functional, organism-based
[8] = tested on: HEK293; assay: Cytotoxicity against human HEK293 cells at 41 uM after 48 hrs by alamar blue assay; format: cell-based; settings: hek293, 48 h
[9] = tested on: HEK293; assay: Cytotoxicity against human HEK293 cells at 70 uM after 48 hrs by alamar blue assay; format: cell-based; settings: hek293, 48 h

COc1c(Br)cc(Br)c(CCN(C)CC(C)O)c1Br (stereo unspecified) [CONVOLUTAMINE A]
IC50 [1]: 1.4 mg/L (≈ 3.04 µM)

COc1ccc(Br)c(CCN(C)CC(C)O)c1Br (stereo unspecified) [CONVOLUTAMINE B]
IC50 [1]: 1.4 mg/L (≈ 3.67 µM)

COc1c(Br)cc(Br)c(CCN2COC(C)C2)c1Br (stereo unspecified) [CONVOLUTAMINE D]
IC50 [1]: 1.4 mg/L (≈ 3.06 µM)

CNCCc1c(Br)cc(Br)c(OC)c1Br [CONVOLUTAMINE F]
IC50 [2]: 81 mg/L (≈ 202 µM)

CNCCc1c(Br)c(Br)c(Br)c(OC)c1OC [CONVOLUTAMINE H]
LD99 [3]: 0.2 µg/mL

COc1c(Br)cc(Br)c(CCNCCCN(C)C)c1Br [CONVOLUTAMINE I]
selectivity ratio [4]: 18.3 | logP [5]: 4.1 | IC50 [6]: 22 µM | IC50 [7]: 1.1 µM

COc1c(Br)cc(Br)c(CCN2C=[N+](C)CCC2)c1Br [CONVOLUTAMINE J]
logP [5]: 3.9 | Activity [8]: Non-toxic | IC50 [7]: 13.7 µM

N=C(N)c1ccc(/N=N/Nc2ccc(C(=N)N)cc2)cc1 [DIMINAZENE]
IC50 [7]: 0.0701 µM | Activity [9]: Non-toxic

N=C(N)c1ccc(OCCCCCOc2ccc(C(=N)N)cc2)cc1 [PENTAMIDINE]
IC50 [6]: 71 µM | IC50 [7]: 0.0151 µM
